Key:
R5-HIV-1Ba-L = experiment: HIV-1 replication in infected iDCs (p24 ELISA in culture supernatant); type: cell-based; settings: for HIV-1 production (p24 in supernatant): 3 days, inhibitor 10 μg/ml
Procedure: FIGS. 6 (a), (b) and (c). Exogenous rh-HMGB1 triggers HIV-1 and HIV-2 replication in iDC. (a) HIV-1-infected iDC were cultured alone or in the presence of aNK cells for 3 days. Rh-HMGB1 (1 μg/ml) was added in some cultures. HIV replication was measured by p24 quantification in culture supernatant (b) HIV1-infected iDC were cultured alone or in the presence of aNK cells for 3 days. Blocking anti-HMGB1 antibodies (10 μg/ml) or glycyrrhizin (10 μg/ml) were added at culture initiation. HIV replication was measured by p24 quantification in culture supernatant. The mean±sd of three independent experiments is shown. Statistical comparisons were made with the non parametric Mann-Whitney test. * p<0.05; (c) HIV-2-infected iDC were cultured alone or in the presence of aNK cells for 3 days. Rh-HMGB1 (1 μg/ml) was added in some cultures. HIV replication was measured by p24 quantification in culture supernatant.
Exogenous HMGB1 was recently reported to increase HIV-1 replication in infected monocytic cell lines38, and to induce in vitro the reactivation of HIV-1 in PBMCs from HIV-1-infected patients under antiretroviral therapy39. Therefore, the question of the role of HMGB1 in the NK-dependent triggering of HIV replication in DCs was addressed. […] To investigate the influence of HMGB1 in the triggering of HIV-1 replication in infected-iDC-aNK cocultures, HMGB1-specific neutralizing antibodies or glycyrrhizin were added to these cocultures and p24 production was measured in the supernatant. […] They also indicate that aNK cell-dependent stimulation of HIV-1 replication in iDCs is mediated by HMGB1.
Virus stock preparation was prepared by amplification of R5-HIV-1Ba-L on MDM from healthy donors. Viral stock was then clarified by centrifugation prior to determination of HIV1 p24 concentration. iDCs were plated in 96-well culture plates at 200,000 cells/well and incubated for 3 hours at 37° C. in a 5% CO2 atmosphere with R5-HIV-1BAL at various concentrations (0.001 to 10 ng p24/ml). Cells were harvested, washed four times with media containing 10% FCS and, when indicated, rNK or aNK cells were added at a NK:DC ratio of 1:5, unless otherwise indicated. NK-DC cocultures lasted 24 h before analysis of the maturation stage of DCs and/or quantification of viral production. In some experiments (FIG. 6), HIV-1 infected iDCs were incubated alone or with aNK cells for 3 days, in the presence of rh-HMGB1 (1 μg/ml) (R&DSystems), and in some cultures in the presence of rabbit antiHMGB1 Abs (10 μg/ml) (Abcam, Cambridge, UK) or Glycyrrhizin (10 μg/ml).
The concentration of HIV-1 in the supernatant of infected cell cultures was determined by measuring the amount of p24 protein by ELISA (Ingen, Belgium). DNA from cells was extracted using the GIAamp DNA Blood Mini Kit (Qiagen, Basel, Switzerland) and quantified HIV-1 proviral load by RT-PCR as described previously54. The frequency of HIV-1-infected cells was determined by flow cytometry to detect intracellular p24 molecule. Cells were surface stained with antibodies specific for CD40 (BD Biosciences, San Jose, Calif.) to target DC and intracellular stained with p24-specific antibodies (Coulter). Stained cells were fixed in 1% PFA, immediately acquired on a FACScalibur (Becton Dickinson) and analyzed with FlowJo software. In some experiments infected DCs were imaged, after immunofluorescence, by laser scanning confocal microscopy.

[1] = system: iDCs cocultured with aNK cells; experiment: aNK-dependent maturation of uninfected iDCs in aNK-iDC coculture (CD86/HLA-DR flow cytometry); type: cell-based, human; settings: 24 h aNK-iDC coculture, inhibitor 10 μg/ml added at initiation
Procedure: (a) Left panel: iDCs were cultured for 24 h either alone or with aNK cells, in the presence of blocking anti-HMGB1 antibodies (10 μg/ml) or glycyrrhizin (10 μg/ml). The maturation status of DCs was determined by flow cytometry with CD86 and HLA-DR—specific antibodies. Right panel: same experiment, but performed with HIV-1 infected iDCs. Data represent mean±sd of at least three independent experiments, and statistical comparisons were made with the non parametric Mann-Whitney test. * p<0.05. […] NK cells were excluded from the analysis through the co-staining with CD3- and CD56-specific antibodies (CD3^−CD56^+).
To determine the possible involvement of HMGB1 in NK-dependent DC maturation, glycyrrhizin, which is known to interact specifically with soluble HMGB1 molecule31, was used as well as anti-HMGB1 antibodies (FIG. 3a). […] The possible involvement of RAGE during NK-DC cross-talk was evaluated with the same approach, comparing RAGE expression on DCs cocultured with aNK cells and DC cultured alone.
After 6 days of culture in the presence of IL-4 and GM-CSF, iDCs (10^6 cells/ml) were either non stimulated, or stimulated during 48 h with 10 μg/ml LPS (E. coli serotype 026-B6, Sigma-Aldrich) to obtain DC0 cells, or 500 ng/ml of trimeric CD40L (Sigma-Aldrich) to obtain DC1 cells, or 10 μg/ml of LPS and 1 μg/ml PGE2 (Sigma-Aldrich) to obtain DC2 cells. […]

HIV-1-infected iDCs = experiment: Apoptosis of HIV-1-infected iDCs (7-AAD assay); type: cell-based, human
Procedure: Living cells are 7-AAA^−, apoptotic cells 7-AAD^+, and apoptotic debris are 7-AAD^−FSC^low. Dot plots represent one of at least three independent experiments. […] Cell death was then quantified with the 7-AAD assay. The mean±sd of three independent experiments was presented.
(a) iDCs or HIV-1-infected iDCs were cultured alone or in the presence of aNK cells (NK:DC ratio of 5:1). […] Cell death was then quantified with the 7-AAD assay. (b) Same experiments were performed in the presence of blocking anti-HMGB1 antibodies (10 and 15 μg/ml). One representative experiment out of three conducted is shown.
Immature DCs (iDCs) were prepared from sorted monocytes from healthy donors, cultured for 6 days in the presence of IL-4 and GM-CSF. In some experiments, iDCs were infected with R5-HIV-1 (1 ng/ml of p24). Coculture experiments with autologous purified aNK cells (activated by PHA+IL-2) were performed at various NK:DC ratios. The influence of NK-DC interaction on DC's maturation and apoptosis was analyzed using multiparametric flow cytometry, combining 7-AAD staining with membrane and intracellular staining with mAbs specific for HLA-DR, DC-SIGN, CD83, CD86, DR4, mTRAIL, etc.
To investigate the impact of HIV on aNK-induced iDCs' apoptosis, iDCs were infected with R5-HIV-1 (1 ng of p24/ml).

iDCs = experiment: aNK-induced apoptosis of uninfected iDCs (7-AAD assay, NK:DC 5:1); type: cell-based, human; settings: NK:DC ratio 5:1, 24 h
Procedure: FIGS. 9(a)-(g). aNK-dependent apoptosis of iDCs is TNF-related apoptosis-inducing ligand (TRAIL)-dependent and involves the DR4 receptor. (a) CD56^+ NK cells were purified from the blood of healthy donors. NK cells were maintained in culture with suboptimal concentrations of interleukin-2 (IL-2) (100 ng/ml) (rNK cells) or activated (aNK cells) by the addition PHA (10 μg/ml) and IL-2 (10 μg/ml) to cultures. The intensity of staining with anti-CD56 antibodies allows the distinction between two NK cell populations expressing CD56 highly (CD56^bright cells) and weakly (CD56^dim cells). Data represent the mean±sd of three independent experiments. (b) Membrane TRAIL (mTRAIL) expression by NK cells is determined by flow cytometry with anti-CD56 and -mTRAIL specific antibodies. Data represent one of three independent experiments. […] The proportions of mTRAIL-expressing aNK cells among CD56^bright and CD56^dim populations were determined. […] DR4 expression at the DCs surface is analyzed after 1, 2, 3.5, 6 and 24 h of NK-DC coculture. […] Cell death was then quantified with the 7-AAD assay. […] (f) 24 h cell-free culture supernatants of iDCs, rNK cells, aNK cells (10^6/ml), or cocultures of aNK cells and iDCs (ratio 5:1) were tested for soluble TRAIL (sTRAIL) content. sTRAIL was quantified by ELISA. […] The viability status of DCs was determined by flow cytometry with the 7-AAD assay. […]

Q: With `CC1(C)[C@@H](O[C@H]2O[C@H](C(=O)O)[C@@H](O)[C@H](O)[C@H]2O[C@@H]2O[C@H](C(=O)O)[C@@H](O)[C@H](O)[C@H]2O)CC[C@]2(C)[C@H]3C(=O)C=C4[C@@H]5C[C@@](C)(C(=O)O)CC[C@]5(C)CC[C@@]4(C)[C@]3(C)CC[C@@H]12` [glycyrrhizin] as the molecule, how does the HIV-1 replication (R5-HIV-1Ba-L; 24 h cultures of infected iDCs, absence of NK cells) read?
A: The HIV-1 replication was “decreased significantly HIV-1 replication”.

Q: What about the “HIV-1 production (p24 in supernatant)” value (R5-HIV-1Ba-L; infected DC cocultured with aNK cells) of the same molecule?
A: The value was “abrogated HIV-1 production”.

Q: And the “HIV-1 production (p24 in supernatant)” value (R5-HIV-1Ba-L; infected DC cultured alone)?
A: The value was “abrogated HIV-1 production”.

Q: What about the “proportions of mature DCs (CD86bright HLA-DRbright)” value [1] of the same molecule?
A: The value was “reduced the proportions of mature DCs”.

Q: And the “resistance of HIV-1-infected iDCs to aNK-induced apoptosis” value (HIV-1-infected iDCs; NK:DC ratio 5:1, inhibition assays)?
A: The value was “found dependent on HMGB1”.

Q: How did the “NK-dependent iDCs apoptosis” value (iDCs) turn out when `C/C=C/[C@H]1O[C@@](O)([C@@H](C)[C@H](O)[C@H](C)[C@H]2OC(=O)/C(OC)=C/C(C)=C/[C@@H](C)[C@@H](O)[C@@H](CC)[C@@H](O)[C@H](C)C/C(C)=C/C=C/[C@@H]2OC)C[C@@H](O[C@H]2C[C@@H](O)[C@H](OC(N)=O)[C@@H](C)O2)[C@@H]1C` [Concanamycin A] was run?
A: The value was “no effect”.

B1: rhs-TRAIL: recombinant human soluble TRAIL (protein, UniProt P50591 39-281, looked up)
extracellular domain: TNELKQMQDKYSKSGIACFLKEDDSYWDPNDEESMNSPCWQVKWQLRQLVRKMILRTSEETISTVQEKQQNISPLVRERGPQRVAAHITGTRGRSNTLSSPNSKNEKALGRKINSWESSRSGHSFLSNLHLRNGELVIHEKGFYYIYSQTYFRFQEEIKENTKNDKQMVQYIYKYTSYPDPILLMKSARNSCWSKDAEYGLYSIYQGGIFELKENDRIFVSVTNEHLIDMDHEASFFGAFLVG
modifications: extracellular domain
Q: Which “TRAIL-induced apoptosis of HIV-1-infected DCs” value (HIV-1-infected iDCs; 24 h, 1-1000 ng/ml) does the source give for B1 here?
A: The value was “still susceptible to TRAIL-induced apoptosis”.
